# In ChEMBL document CHEMBL1144896 (2003):
# What was measured:
# Assay type in all cases: functional
# NCI-H1299 [1] = test: hTERT-SEAP (Human telomerase reverse transcriptase-SEAP) activity in non-small cell lung cancer H1299 cell at 20 uM concentration and level of cell viability determined in MTT assay
# NCI-H1299 [2] = test: Compound was tested for human telomerase reverse transcriptase-SEAP (hTERT-SEAP) activity in non-small cell lung cancer H1299 cell at 200.0 uM concentration
# NCI-H1299 [3] = test: Compound was tested for human telomerase reverse transcriptase-SEAP (hTERT-SEAP) activity in non-small cell lung cancer H1299 cell at 2.0 uM concentration
# BJ [4] = test: hTERT-SEAP (Human telomerase reverse transcriptase-SEAP) activity in immortalized hTERT-BJI at 20 uM concentration and level of cell viability determined in MTT assay
# NCI-H1299 [5] = test: (§1) hTERT-SEAP (Human telomerase reverse transcriptase-SEAP) activity in non-small cell lung cancer H1299 cell at 2.0 uM concentration and level of cell viability determined in MTT assay
# NCI-H1299 [6] = test: Compound was tested for human telomerase reverse transcriptase-SEAP (hTERT-SEAP) activity in non-small cell lung cancer H1299 cell at 20 uM concentration
# BJ [7] = test: Compound was tested for human telomerase reverse transcriptase-SEAP (hTERT-SEAP) activity in immortalized hTERT-BJI at 20 uM concentration
# BJ [8] = test: Compound was tested for human telomerase reverse transcriptase-SEAP (hTERT-SEAP) activity in immortalized hTERT-BJI at 200.0 uM concentration
# BJ [9] = test: hTERT-SEAP (Human telomerase reverse transcriptase-SEAP) activity in immortalized hTERT-BJI at 200.0 uM concentration and level of cell viability determined in MTT assay
# NCI-H1299 [10] = test: as §1; remark: listed apart in the source
# NCI-H1299 [11] = test: hTERT-SEAP (Human telomerase reverse transcriptase-SEAP) activity in non-small cell lung cancer H1299 cell at 200.0 uM concentration and level of cell viability determined in MTT assay
# BJ [12] = test: Compound was tested for human telomerase reverse transcriptase-SEAP (hTERT-SEAP) activity in immortalized hTERT-BJI at 2.4 uM concentration
# NCI-H1299 [13] = test: hTERT-SEAP (Human telomerase reverse transcriptase-SEAP) activity in non-small cell lung cancer H1299 cell at 240.0 uM concentration and level of cell viability determined in MTT assay
# NCI-H1299 [14] = test: Compound was tested for human telomerase reverse transcriptase-SEAP (hTERT-SEAP) activity in non-small cell lung cancer H1299 cell at 240.0 uM concentration
# BJ [15] = test: Compound was tested for human telomerase reverse transcriptase-SEAP (hTERT-SEAP) activity in immortalized hTERT-BJI at 24 uM concentration
# BJ [16] = test: hTERT-SEAP (Human telomerase reverse transcriptase-SEAP) activity in immortalized hTERT-BJI at 24 uM concentration and level of cell viability determined in MTT assay
# NCI-H1299 [17] = test: Compound was tested for human telomerase reverse transcriptase-SEAP (hTERT-SEAP) activity in non-small cell lung cancer H1299 cell at 2.4 uM concentration
# BJ [18] = test: hTERT-SEAP (Human telomerase reverse transcriptase-SEAP) activity in immortalized hTERT-BJI at 240.0 uM concentration and level of cell viability determined in MTT assay
# NCI-H1299 [19] = test: Compound was tested for human telomerase reverse transcriptase-SEAP (hTERT-SEAP) activity in non-small cell lung cancer H1299 cell at 24 uM concentration
# NCI-H1299 [20] = test: hTERT-SEAP (Human telomerase reverse transcriptase-SEAP) activity in non-small cell lung cancer H1299 cell at 2.4 uM concentration and level of cell viability determined in MTT assay
# NCI-H1299 [21] = test: hTERT-SEAP (Human telomerase reverse transcriptase-SEAP) activity in non-small cell lung cancer H1299 cell at 24 uM concentration and level of cell viability determined in MTT assay
# BJ [22] = test: Compound was tested for human telomerase reverse transcriptase-SEAP (hTERT-SEAP) activity in immortalized hTERT-BJI at 240.0 uM concentration
compound,measurement,setting,value
O=C(CCc1ccccc1)Oc1cccc2c1C(=O)c1cccc(OC(=O)CCc3ccccc3)c1C2=O,Relative viability,NCI-H1299 [1],101%
same,Relative SEAP activity,NCI-H1299 [2],89%
same,Relative SEAP activity,NCI-H1299 [3],94%
same,Relative viability,BJ [4],106%
same,Relative viability,NCI-H1299 [5],111%
same,Relative SEAP activity,NCI-H1299 [6],98%
same,Relative SEAP activity,BJ [7],124%
same,Relative SEAP activity,BJ [8],110%
same,Relative viability,BJ [9],76%
same,Relative viability,NCI-H1299 [10],111%
same,Relative viability,NCI-H1299 [11],54%
O=C1c2cccc(SCC(O)CO)c2C(=O)c2cccc(SCC(O)CO)c21 (configuration not stated),Relative SEAP activity,BJ [12],144%
same,Relative viability,NCI-H1299 [13],83%
same,Relative SEAP activity,NCI-H1299 [14],81%
same,Relative SEAP activity,BJ [15],136%
same,Relative viability,BJ [16],86%
same,Relative SEAP activity,NCI-H1299 [17],105%
same,Relative viability,BJ [18],79%
same,Relative SEAP activity,NCI-H1299 [19],90%
same,Relative viability,NCI-H1299 [20],102%
same,Relative viability,NCI-H1299 [21],103%
same,Relative SEAP activity,BJ [22],142%
